Reference: patent US20230286925A1, “PHENYL TRIAZOLE MLL1-WDR5 PROTEIN-PROTEIN INTERACTION INHIBITOR” (HUYABIO International, LLC, priority 2022, published 2023)
pIC50: −log10 of the molar value. Where two headings read alike, the source gives them in different places.

What was measured:
[1] = target: MLL1-WDR5 protein-protein interaction (Homo sapiens (Human), UniProt P61964); test: WDR5 TR-FRET assay of inhibition against MLL1-WDR5 protein-protein interaction; format: binding; conditions: for IC50: Table 7, read-out: WDR5 TR-FRET Assay (IC50 nM); for pIC50: WDR5 TR-FRET, 5 nM WDR5 protein, 10 nM peptide, read-out: MLL1-WDR5 PPI inhibitory activity
Description: WDR5 TR-FRET Assay Procedure: Stock compounds were transferred to the assay plate by Echo Liquid Handler. Reactions were performed in the assay buffer (1×PBS, 300 mM NaCl, 0.5 mM TCEP, 0.1% CHAPS) containing 5 nM WDR5 protein, 10 nM peptide (Ac-ARTEVHLRKS-[Ahx-Ahx] [C]-Alexa Fluor 488-NH2) and 0.25 nM Tb-anti His antibody (Tb-Ab) in 384-well white plate (PerkinElmer) with a final volume of 20 μl. Compounds were incubated with WDR5 protein for 30 min at room temperature. Plates were covered, protected from light and incubated for 60 min at room temperature after adding the peptide and Tb-Ab. EnVision Multimode Plate Reader (PerkinElmer) was used for the TR-FRET assay with excitation wavelength at 340 nm and emission wavelength at 495 and 520 nm. The ratio of the 520/495 wavelengths were used to assess the degree of the FRET signal. IC50 was calculated by fitting the inhibition data using XLfit software to sigmoidal dose-response model.
Biphenyl compound DDO-2084 was reported to be a small molecule inhibitor that can inhibit MLL1-WDR5 protein-protein interaction, reduce MLL1 enzyme catalytic activity, and downregulate the expression of Hox and Meis-1 genes (Eur. J. Med. Chem. 2016, 124, 480-489). DDO-2084 is used as a positive control compound.

MV-411 cells = test: Anti-proliferative activity against leukemia cells (CellTiterGlo viability, 72 hrs); format: cell-based
Description: Procedure: MV-411 or Molm-13 cells were seeded into 384 well plates at 2000 cells/well density in 50 uL according plate map and were allowed to naturally sediment by waiting about 30 min in Clean Bench. Next, plated cells were centrifuged for 1 min at 1000 rpm and the excess cells were transferred into the flasks for further culture. Cells in the assay plates were incubated (at least 4 hrs) at 37° C., 5% CO2 for next process followed by adding the compounds as the plate map indicated. The tests were performed in duplicates with treatment of compounds at 10 pts 3 fold titration in 384 well plates. Taxol was as positive control while DMSO as negative control. To rule out edge effect, the wells on the edge were not seeded and therefore one 384 well plate holds 13 compounds. Cells viability was measured 72 hrs after incubation with compounds and using CellTiterGlo (promega) viability assay according to manufactory's instruction to check the ATP production in each well.
Experiments on anti-proliferative activity against leukemia cells were conducted with some of the compounds of the invention.

[2] = MV4-11, MV-411 human acute monocytic leukemia cell, Table 7
[3] = MV4-11, MV-411 human acute monocytic leukemia cell, Table 6
[4] = MV-411 human acute monocytic leukemia cell, Table 6

Row | Compound | pIC50 [1] | GI50 (MV-411 cells; [3]) | also measured
1 | C[C@@H]1CN(c2ccc(-c3ccc(NC(=O)C4CCCCC4)cc3)c(F)c2Nc2ncnc(Cl)c2N)C[C@H](C)N1C [DDO-2213_014, N-(3′-((5-amino-6-chloropyrimidin-4-yl)amino)-2′-fluoro-4′-((3S,5R)-3,4,5-trimethylpiperazin-1-yl)-[1,1′-biphenyl]-4-yl)cyclohexanecarboxamide] | – | – | IC50 [1]: 186 nM; GI50 (MV-411 cells; [2]): 8.26 µM
2 | C[C@@H]1CN(c2cc(F)c(-c3cccc(CN4CCOCC4)c3)cc2Nc2ncnc(Cl)c2N)C[C@H](C)N1C [DDO-2213_019, 6-chloro-N4-(6-fluoro-3′-(morpholinomethyl)-4-((3S,5R)-3,4,5-trimethylpiperazin-1-yl)-[1,1′-biphenyl]-3-yl)pyrimidine-4,5-diamine] | – | – | IC50 [1]: 215 nM; GI50 (MV-411 cells; [2]): 6.98 µM
3 | Cc1c(F)ccc(C(=O)Nc2cc(-n3cc(C(=O)NCCCN4CCOCC4)nn3)ccc2N2CCN(C)CC2)c1Cl [HYBI_038] | 6.73 | 17.5 µM | –
4 | Cc1c(F)c(N)cc(C(=O)Nc2cc(-n3cc(C(=O)NCCCN4CCOCC4)nn3)ccc2N2C[C@@H](C)N(C)[C@@H](C)C2)c1Cl [HYBI_021] | 8.15 | 25.1 µM | –
5 | CN1CCN(c2ccc(-n3cc(C(=O)NCCCN4CCOCC4)nn3)cc2NC(=O)c2cc(O)cc(F)c2F)CC1 [HYBI_047] | 6.33 | 16.8 µM | –
6 | Cc1c(F)c(N)cc(C(=O)Nc2cc(-n3cc(C(=O)NCCCN4CCOCC4)nn3)c(F)cc2N2CCN(C)[C@H](C)C2)c1Cl [DDO-2313] | – | 40.9 µM | –
7 | C[C@@H]1CN(c2ccc(-c3ccc(NC(=O)CC4CCCCC4)cc3)c(F)c2Nc2ncnc(Cl)c2N)C[C@H](C)N1C [DDO-2213_015, N-(3′-((5-amino-6-chloropyrimidin-4-yl)amino)-2′-fluoro-4′-((3S,5R)-3,4,5-trimethylpiperazin-1-yl)-[1,1′-biphenyl]-4-yl)-2-cyclohexylacetamide] | – | – | IC50 [1]: 85.5 nM; GI50 (MV-411 cells; [2]): 4.14 µM
8 | C[C@@H]1CN(c2cc(F)c(-n3cc(C(=O)N4CCOCC4)nn3)cc2Nc2ncnc(Cl)c2N)C[C@H](C)N1C [DDO-2213_010, (1-(5-((5-amino-6-chloropyrimidin-4-yl)amino)-2-fluoro-4-((3S,5R)-3,4,5-trimethylpiperazin-1-yl)phenyl)-1H-1,2,3-triazol-4-yl)(morpholino)methanone] | – | – | IC50 [1]: 250 nM; GI50 (MV-411 cells; [2]): 7.93 µM
9 | Cc1c(F)c(N)cc(C(=O)Nc2cc(-n3cc(C(=O)NCCCN4CCOCC4)nn3)c(F)cc2N2CCN(C)C(C)C2)c1Cl (centres unmarked) [HYBI_027] | 7.97 | 20 µM | –
10 | C[C@H]1CN(c2ccc(-c3ccc(C(=O)NCCN4CCOCC4)cc3)c(F)c2Nc2ncnc(Cl)c2N)CCN1C [DDO-2213_012, (S)-3′-((5-amino-6-chloropyrimidin-4-yl)amino)-4′-(3,4-dimethylpiperazin-1-yl)-2′-fluoro-N-(2-morpholinoethyl)-[1,1′-biphenyl]-4-carboxamide] | – | – | IC50 [1]: 56.4 nM; GI50 (MV-411 cells; [2]): 104 µM
11 | C[C@H]1CN(c2cc(F)c(-c3ccc(C(=O)NCC4CCOCC4)cc3)cc2Nc2ncnc(Cl)c2N)CCN1C [DDO-2213_016, (S)-5′-((5-amino-6-chloropyrimidin-4-yl)amino)-4′-(3,4-dimethylpiperazin-1-yl)-2′-fluoro-N-((tetrahydro-2H-pyran-4-yl)methyl)-[1,1′-biphenyl]-4-carboxamide] | – | – | IC50 [1]: 12.2 nM; GI50 (MV-411 cells; [2]): 6.31 µM
12 | Cc1c(F)c(N)cc(C(=O)Nc2cc(-n3cc(C(=O)OCC4(C)CCCCC4)nn3)ccc2N2CCN(C)CC2)c1Cl [HYBI_014] | – | 2.62 µM | –
13 | C[C@@H]1CN(c2ccc(-c3cc(CNC4CCCCC4)ccc3F)cc2Nc2ncnc(Cl)c2N)C[C@H](C)N1C [DDO-2213_030, 6-chloro-N4-(5′-((cyclohexylamino)methyl)-2′-fluoro-4-((3S,5R)-3,4,5-trimethylpiperazin-1-yl)-[1,1′-biphenyl]-3-yl)pyrimidine-4,5-diamine] | – | – | IC50 [1]: 418 nM; GI50 (MV-411 cells; [2]): 2.43 µM
14 | 1-(3-(5-amino-2-chloro-4-fluoro-3-methylbenzamido)-4-(4-methylpiperazin-1-yl)phenyl)-N-(2-ethoxyethyl)-1H-1,2,3-triazole-4-carboxamide [HYBI_002] | 7.35 | – | GI50 (MV-411 cells; [4]): 6.31 µM
15 | COc1ccc(COC(=O)c2cn(-c3ccc(N4CCN(C)CC4)c(NC(=O)c4cc(N)c(F)c(C)c4Cl)c3)nn2)cc1 [HYBI_010] | 8.02 | 5.95 µM | –
16 | Cc1c(F)c([N+](=O)[O-])cc(C(=O)Nc2cc(-n3cc(C(=O)NCCCN4CCOCC4)nn3)ccc2N2CCN(C)CC2)c1Cl [HYBI_039] | 6.88 | 0.108 µM | –
17 | Cc1c(F)c(N)cc(C(=O)Nc2cc(-n3cc(C(=O)NCCCN4CCOCC4)nn3)ccc2N2CCN(C)[C@H](C)C2)c1Cl [DDO-2308] | – | 9.29 µM | –

Row | Compound | pIC50 [1] | GI50 (MV-411 cells; [3]) | also measured
18 | CCN(CC)C(=O)c1cn(-c2cc(NC(=O)c3cc(N)c(F)c(C)c3Cl)c(N3C[C@@H](C)N(C)[C@@H](C)C3)cc2F)nn1 [HYBI_082] | 8.31 | – | GI50 (MV-411 cells; [4]): 2.4 µM
19 | Cc1c(F)c(N)cc(C(=O)Nc2cc(-n3cc(C(=O)NC4CCOCC4)nn3)c(F)cc2N2C[C@@H](C)N(C)[C@@H](C)C2)c1Cl [HYBI_086] | 8.40 | 19.7 µM | –
20 | Cc1c(F)c(N)cc(C(=O)Nc2cc(-n3cc(C(=O)N4CCN(C)CC4)nn3)c(F)cc2N2C[C@@H](C)N(C)[C@@H](C)C2)c1Cl [HYBI_084] | 8.33 | 3.35 µM | –
21 | Cc1c(F)c(N)cc(C(=O)Nc2cc(-n3cc(C(=O)NCCCN4CCOCC4)nn3)c(F)cc2N2C[C@@H](C)N(C)[C@@H](C)C2)c1Cl [HYBI_028] | 8.28 | 30.9 µM | –
22 | Cc1c(F)c(N)cc(C(=O)Nc2cc(-n3cc(C(=O)OCC4CCN(C)CC4)nn3)ccc2N2CCN(C)CC2)c1Cl [HYBI_016] | 7.69 | 7.1 µM | –
23 | Cc1c(F)c(N)cc(C(=O)Nc2cc(-n3cc(C(=O)NCCCN4CCOCC4)nn3)ccc2N2CCN(C)C(C)C2)c1Cl (centres unmarked) [DDO-2306] | – | 7.11 µM | –
24 | CN1CCN(c2ccc(-n3cc(C(=O)NCCCN4CCOCC4)nn3)cc2NC(=O)c2nn(C)c3ccccc23)CC1 [HYBI_050] | 5.26 | 10.7 µM | –
25 | C[C@@H]1CN(c2cc(F)c(-c3ccnc(N(C)C)n3)cc2Nc2ncnc(Cl)c2N)C[C@H](C)N1C [DDO-2213_028, 6-chloro-N4-(5-(2-(dimethylamino)pyrimidin-4-yl)-4-fluoro-2-((3S,5R)-3,4,5-trimethylpiperazin-1-yl)phenyl)pyrimidine-4,5-diamine] | – | – | IC50 [1]: 51.8 nM; GI50 (MV-411 cells; [2]): > 200 µM
26 | CN1CCN(c2ccc(-n3cc(C(=O)NCCCN4CCOCC4)nn3)cc2NC(=O)c2cc(O)cc(C(F)(F)F)c2)CC1 [HYBI_046] | 6.57 | 10.5 µM | –
27 | Cc1c(F)c(N)cc(C(=O)Nc2cc(-n3cc(C(=O)NCCCN4CCOCC4)nn3)ccc2N2CCCN(C)CC2)c1Cl [HYBI_022] | 7.21 | 17.2 µM | –
28 | CN1CCN(c2ccc(-n3cc(C(=O)NCCCN4CCOCC4)nn3)cc2NC(=O)c2ccc(O)cc2C(F)(F)F)CC1 [HYBI_043] | – | 76 µM | –
29 | C[C@@H]1CN(c2cc(F)c(C3=CCCN(c4ncc(CN5CCOCC5)cn4)C3)cc2Nc2ncnc(Cl)c2N)C[C@H](C)N1C [DDO-2213_026, 6-chloro-N^4-(4-fluoro-5-(1-(5-(morpholinomethyl)pyrimidin-2-yl)-1,2,5,6-tetrahydropyridin-3-yl)-2-((3S,5R)-3,4,5-trimethylpiperazin-1-yl)phenyl)pyrimidine-4,5-diamine] | – | – | IC50 [1]: 18.6 nM; GI50 (MV-411 cells; [2]): 12.7 µM
30 | CN1CCCN(c2cc(F)c(-c3ccc(C(=O)N(C)C)cc3)cc2Nc2ncnc(Cl)c2N)CC1 [DDO-2213_003, 5′-((5-amino-6-chloropyrimidin-4-yl)amino)-2′-fluoro-N,N-dimethyl-4′-(4-methyl-1,4-diazepan-1-yl)-[1,1′-biphenyl]-4-carboxamide] | – | – | IC50 [1]: 395 nM; GI50 (MV-411 cells; [2]): 59.9 µM
31 | COC(=O)c1cn(-c2cc(NC(=O)c3cc(N)c(F)c(C)c3Cl)c(N3CCN(C)CC3)cc2F)nn1 [DDO-2316] | – | 25.4 µM | –
32 | COc1cc(N2CCN(C)CC2)c(NC(=O)c2cc(N)c(F)c(C)c2Cl)cc1-n1cc(C(=O)NCCCN2CCOCC2)nn1 [DDO-2315] | – | 24.5 µM | –
33 | Cc1c(F)c(N)cc(C(=O)Nc2cc(-n3cc(C(=O)NCCCN4CCOCC4)nn3)c(F)cc2N2CCN(C)[C@@H](C)C2)c1Cl [DDO-2312] | – | 24.5 µM | –
34 | Cc1cc(C(=O)Nc2cc(-n3cc(C(=O)NCCCN4CCOCC4)nn3)ccc2N2CCN(C)CC2)ccc1F [HYBI_041] | – | 13.2 µM | –
